{"source": "patent US8110657B2", "about": "“Polypeptides and polynucleotides for enhancing immune reactivity to HER-2 protein” (priority 1999, dated 2012)", "test_system": "autologous targets", "test": "CTL assay (chromium release)", "type": "cell-based", "conditions": "two in vitro re-stimulations, IL-2 added"}
{"substance": "DW2: amino acids 391-399 of the HER-2 protein, T cell epitope (PLQPEQLQV; UniProt P04626 391-399, looked up, fragment)", "values": [{"measurement": "CTL lysis of targets", "result": "able to specifically lyse autologous targets in a dose dependent manner"}]}
